Experimental data as given in patent publication US20030177534A1, “Plant glutamine:fructose-6-phosphate amidotransferase nucleic acids” (Pioneer Hi-Bred International, Inc., priority 1998, published 2003).
One block for each molecule: values may come before it.

How the values were obtained:
[1] = test system: yeast glycogen synthase (YGS); assay: Activity assay of the yeast glycogen synthase (YGS) overexpressed in Pichia; type: biochemical; details: 6.7 mM UDP glucosamine, 1 mM maltoheptose, 30° C., 1 hour; preliminary results
Procedure: 6. Activity Assay of the Yeast Glycogen Synthase (YGS)
The last reaction: synthesis of cationic starch by the yeast glycogen synthase overexpressed in Pichia using UDPgluosamine and glucosyl oligosaccharide primers: […]
UDP glucosamine+starch→starch periodically interspersed with 2 amino anhydroglucose
The YGS produced from secreted expression in Pichia was isolated from the growth medium, desalted into a buffer containing 50 mM Tris-HCl and 5 mM EDTA, pH 7.8, and concentrated using Centricon-30 concentrator. The preparation was used for assaying the activity of YGS.
50 mM Tris-HCl and 5 mM EDTA, pH 7.8
6.7 mM UDP glucose or UDP glucosamine
6.7 mM glucose-6-phosphate
1 mM maltoheptose ([…], from Sigma)
Protein prep: 150 μg/300-μl reaction
Incubated at 30° C. for 1 hour.
Analyze by HPLC using Dionex's CarboPac-PA1 column with a pulsed amperometry detector (to detect the formation of elongated glusyl oligo primers);

[2] = target: T1, PGM from rabbit muscle (Oryctolagus cuniculus, UniProt P00949); assay: Activity assay of phosphoglucomutase (PGM), commercial rabbit muscle PGM; type: biochemical; details: HPLC; for conversion of substrate by rabbit muscle PGM (glucosamine-1-phosphate to glucosamine-6-phosphate or reverse): 2 mM substrate, 30° C., 15 min, at completion/end of reaction
T1 construct: Commercial PGM from rabbit muscle; purchased Boehringer Mannheim 108375; host or cells: rabbit muscle
T1 sequence (P00949 1-562): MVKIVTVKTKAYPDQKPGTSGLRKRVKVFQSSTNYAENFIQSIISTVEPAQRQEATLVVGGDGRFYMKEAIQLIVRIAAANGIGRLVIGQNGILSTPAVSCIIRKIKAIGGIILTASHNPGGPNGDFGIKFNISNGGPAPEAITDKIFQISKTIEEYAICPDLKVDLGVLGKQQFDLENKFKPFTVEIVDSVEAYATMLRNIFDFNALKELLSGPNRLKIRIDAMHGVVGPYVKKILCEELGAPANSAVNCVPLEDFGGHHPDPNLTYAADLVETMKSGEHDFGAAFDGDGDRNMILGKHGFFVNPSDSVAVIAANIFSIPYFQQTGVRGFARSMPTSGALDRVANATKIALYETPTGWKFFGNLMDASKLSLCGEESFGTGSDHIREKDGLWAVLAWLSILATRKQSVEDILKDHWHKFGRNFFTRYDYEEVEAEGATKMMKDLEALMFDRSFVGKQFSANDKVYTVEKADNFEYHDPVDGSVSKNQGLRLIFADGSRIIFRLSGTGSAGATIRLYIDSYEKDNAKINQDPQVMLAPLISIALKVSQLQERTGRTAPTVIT
Procedure: (§1) 3. Activity Assay of Phosphoglucomutase (PGM)
(§2) glucosamine-6-phosphate→glucosamine-1-phosphate
(§3) 80 mM triethanolamine, pH 7.6
(§4) 20 μM glucosae-1,6-bisphosphate
(§5) 2 mM glucosamine-1-phosphate or glucosamine-6-phosphate
Commercial PGM from rabbit muscle (Boehringer Mannheim, Catalog No. 108375)
(§6) Incubated at 30° C. for 15 min.
(§7) * Transferred to a Centricon-30 concentrator and centrifuged at 1,400× for 20 min.
(§8) Removed 100 μl of the filtrate and added 400-μl water.
(§9) Injected 50 μl onto Dionex's CarboPac PA1 column and detected with a pulsed amperometry detector.
(§10) Eluted with 100 mM NaOH and 100 mM NaOH/1M sodium acetate (to detect formation of glucosamine-6-phosphate or glucosamine-1-phosphate): […]

[3] = test system: UGPase; assay: UGPase activity in the maize endosperm protein extract; type: biochemical; details: extract from seeds harvested 20 days after pollination
Procedure: For UGPase Activity in the Maize Endosperm
Weighted 8-g GS3 kernels (20 days after pollination);
Added 0.5-ml Boehringer's protease inhibitor cocktail (one tablet dissolved in 1-ml water);
Blended for 10 sec, 3×at 4° C.;
Filtered through three layers of Cheesecloth at 4° C.;
Passed two 100-μl aliquots through a BioRad's BioSpin-30 column using a swing bucked rotor in Jouan at 2100 rpm, at RT, & repeated (i.e. two Bio-Spin-30 columns used for each of the 2, 100-μl aliquots);
(§11) 48 mM Tris-HCl, pH 8.5; 19 mM MgCl2; 2.3 mM β-mercaptoethanol; 1 mM UTP; inorganic pyrophosphorylase; 2 mM glucose-1-P or glucosamine-1-P;
(§12) Carried out the reactions at 30° C. for 30 minutes;
(§13) Boiled for 5 min and passed through Centrion-10;

[4] = test system: Phosphoglucomutase (PGM); assay: Activity assay of phosphoglucomutase (PGM), maize endosperm protein extract; type: biochemical; details: extract from immature seeds, 20 days after pollination, HPLC
Procedure: as §1, §2, §3, §4, §5
Maize endosperm protein extract (200-μg total protein per 1.0 ml reaction)
Ground kernels in ice-cold homogenization buffer (50 mM KH2PO4, pH 7.0; 5 mM EDTA; and 1 mM
DTT). Kernels were dissected from an ear (HN18) harvested 20 days after pollination.
Filtered the homogenate through 4-layer cheesecloth, and centrifuged at 25,000×g for 20 min at 4° C.
Desalted the supernatant into the homogenization buffer using a fast FPLC desalting column and collected the flow through.
Added PMSF and chymostatin to a final concentration of 1 mM and used the flow-through as crude PGM prep for the assay.
as §6, §7, §8, §9, §10

[5] = target: T2, bovine liver UGPase (Bos taurus, UniProt Q07130); assay: Activity assay of UDPglucose pyrophosphorylase (UGPase), bovine liver enzyme; type: biochemical; details: 2 mM substrate, 1 mM UTP, 30° C., 30 minutes, HPLC
T2 construct: purchased Sigma U 5877; host or cells: bovine liver
T2 sequence (Q07130 1-508): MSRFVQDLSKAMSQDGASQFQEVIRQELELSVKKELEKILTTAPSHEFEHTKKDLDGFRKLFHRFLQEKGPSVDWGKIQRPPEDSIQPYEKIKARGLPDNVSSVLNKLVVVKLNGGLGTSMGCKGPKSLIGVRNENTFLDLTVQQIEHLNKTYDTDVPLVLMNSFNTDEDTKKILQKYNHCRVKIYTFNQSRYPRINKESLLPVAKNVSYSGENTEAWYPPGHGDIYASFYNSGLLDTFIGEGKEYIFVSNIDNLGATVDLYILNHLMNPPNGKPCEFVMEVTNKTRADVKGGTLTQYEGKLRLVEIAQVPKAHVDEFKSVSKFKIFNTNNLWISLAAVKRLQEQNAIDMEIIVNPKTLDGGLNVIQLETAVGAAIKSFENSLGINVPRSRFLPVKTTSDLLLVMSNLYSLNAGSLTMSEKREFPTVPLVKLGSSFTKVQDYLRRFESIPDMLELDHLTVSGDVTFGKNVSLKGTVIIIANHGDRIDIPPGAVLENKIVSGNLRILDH
Procedure: (§14) 4. Activity Assay of UDPglucose Pyrophosporylase (UGPase) [drawing 1]
(§15) The above reaction is evaluated with an alternative substrate, glucosamine-1-phosphate.
(§16) Enzymes: UDP-glucose pyrophorylases purified from Bakers yeast (U 8501) & bovine liver (U 5877) by Sigma;
(§17) UGPase assay was conducted per protocals used by Sigma;
as §11, §12, §13

[6] = target: T3, Baker yeast UGPase (Saccharomyces cerevisiae, UniProt P32861); assay: Activity assay of UDPglucose pyrophosphorylase (UGPase), Baker yeast enzyme; type: biochemical, Bakers yeast; details: 2 mM substrate, 1 mM UTP, 30° C., 30 minutes, HPLC
T3 construct: UDP-glucose pyrophorylases purified from Bakers yeast (U 8501); purchased Sigma U 8501; host or cells: Bakers yeast
T3 sequence (P32861 1-499): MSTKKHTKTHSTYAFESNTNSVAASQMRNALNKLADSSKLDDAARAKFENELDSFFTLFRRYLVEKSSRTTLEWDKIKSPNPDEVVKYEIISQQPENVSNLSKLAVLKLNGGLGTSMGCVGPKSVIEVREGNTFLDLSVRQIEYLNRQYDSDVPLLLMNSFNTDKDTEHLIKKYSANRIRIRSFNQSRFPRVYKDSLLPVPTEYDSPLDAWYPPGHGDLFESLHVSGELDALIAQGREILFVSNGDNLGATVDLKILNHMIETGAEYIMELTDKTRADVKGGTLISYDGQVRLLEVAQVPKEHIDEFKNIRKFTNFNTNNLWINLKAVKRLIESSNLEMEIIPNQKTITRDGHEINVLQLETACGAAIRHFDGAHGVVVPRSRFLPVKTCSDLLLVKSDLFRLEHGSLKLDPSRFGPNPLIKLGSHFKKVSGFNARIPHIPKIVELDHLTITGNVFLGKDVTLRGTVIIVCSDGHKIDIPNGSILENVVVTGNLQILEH
Procedure: as §14, §15, §16, §17
50 mM Tris-HCl, pH 7.6; 16 mM MgCl2; 10 mM L-cystein, 1 mM UTP; inorganic pyrophosphorylase; 2 mM glucose-1-P or glucosamine-1-P;
as §12, §13

SMILES: N[C@H]1[C@@H](OP(=O)(O)OP(=O)(O)OC[C@H]2O[C@@H](n3ccc(=O)[nH]c3=O)[C@H](O)[C@@H]2O)O[C@H](CO)[C@@H](O)[C@@H]1O [UDP glucosamine]
substrate recognition, transfer of glucosaminyl moiety to glucosyl oligo primers [1]: recognize UDP glucosamine as a substrate

SMILES: N[C@H]1C(OP(=O)(O)O)O[C@H](CO)[C@@H](O)[C@@H]1O (stereo partly drawn) [glucosamine-1-phosphate]
conversion of substrate by rabbit muscle PGM (glucosamine-1-phosphate to glucosamine-6-phosphate or reverse) [2]: about 60% | activity in using substrate to form UDP glucosamine [3]: also found in maize endosperm protein extract | use of substrate by PGM in maize endosperm extract (result in words) [4]: Glucosamine-6-phosphate was detected | substrate recognition in formation of UDP glucosamine [5]: recognized glucosamine-1-P as a substrate | substrate recognition in formation of UDP glucosamine [6]: recognized glucosamine-1-P as a substrate

conversion of substrate by rabbit muscle PGM (glucosamine-1-phosphate to glucosamine-6-phosphate or reverse) [2]: about 70%
SMILES: N[C@H]1C(O)O[C@H](COP(=O)(O)O)[C@@H](O)[C@@H]1O (stereo partly drawn) [glucosamine-6-phosphate]

use of substrate by rabbit muscle PGM (result in words) ([2]; positive control, formation of glucose-6-phosphate): nearly depleted | use of substrate by PGM in maize endosperm extract (result in words) [4]: near complete conversion
SMILES: O=P(O)(O)O[C@H]1O[C@H](CO)[C@@H](O)[C@H](O)[C@H]1O [glucose-1-phosphate]
